Experimental data reported in publication PMC7577125 (Antimicrobial Agents and Chemotherapy, 2020).
Read-outs that look alike come from different tables or passages of the source.

Columns and labels:
[1] = molecular target: T1, CYP2C9 (Homo sapiens, UniProt P11712); assay: CYP inhibition in human liver microsomes, 2C9; assay type: in vitro ADME; details: 0.1–100 μM
T1 construct: in human liver microsomes; from tissue; host or cells: human liver microsomes

[2] = human, rat, cynomolgus monkey
Protocol: In vitro intrinsic clearance (CLint) was determined as follows. […] The calculated CLint was determined from the relationship CLint = k × (volume of incubation in ml/mg microsomal protein) × (mg protein in liver/g liver weight) × (g liver weight/kg body weight). The values for liver weights, body weights, as well as hepatic blood flows (QH) across species were obtained from data reported previously by Davies and Morris ([28]). Values for liver microsome protein/liver weight for mouse, rat, dog, and monkey were […] ([27]), and that for human was 33 mg/g. The calculation used for the prediction of hepatic clearance (CLpred) is CLpred = (QH × CLint)/(QH + CLint).

[3] = molecular target: pregnane X receptor (PXR) (Homo sapiens, UniProt O75469); assay: PXR activation / CYP3A4 induction in DPX2 cells; assay type: in vitro ADME; details: 24 h
Protocol: The determination of CYP induction potential was conducted using CPX2 cells that harbor the human PXR gene and a luciferase reporter gene linked to two promoters identified in the human 3A4 gene.

[4] = molecular target: CYP1A2 (Homo sapiens, UniProt P05177); assay: biochemical
[5] = tested on: HBV; assay: HBV infection of primary human hepatocytes (PHHs); assay type: cell-based; details: Hepatitis B virus, Hepatocyte, PHH
[6] = tested on: HBV genotype D; assay: microbe, parasite or virus in culture; assay type: cell-based; details: Hepatitis B virus, read-out: Mean antiviral EC50
[7] = molecular target: HBV Cp (3CA Cp150-BODIPY) (Hepatitis B virus genotype D subtype adw, UniProt P03147, C107A/C48A/C61A/R150C); assay: HBV Cp in vitro assembly assay (fluorescence quenching)
[8] = tested on: HBV Cp T109M; assay: microbe, parasite or virus in culture; assay type: cell-based, Hepatitis B virus
[9] = in vivo
[10] = molecular target: CYP3A (Homo sapiens, UniProt P08684); assay: CYP inhibition in human liver microsomes, 3A
[11] = in vitro; details: human
[12] = tested on: HBV Cp Y38F; assay: microbe, parasite or virus in culture; assay type: cell-based, Hepatitis B virus
[13] = tested on: HBV; assay: microbe, parasite or virus in culture; details: Hepatitis B virus
[14] = in vitro; details: rat, hepatocytes
[15] = tested on: HBV Cp Y38C; assay: microbe, parasite or virus in culture; assay type: cell-based, Hepatitis B virus
[16] = in vivo; details: male
Protocol: The same solution formulation was administered per os (p.o.) in the same species to determine oral bioavailability.
Pharmacokinetic studies were performed at Wuxi (Shanghai, China) for studies in male mouse, rat, and cynomolgus monkey and at Sai (Pune, India) for studies in male dog. For all oral studies, the formulation was administered in the fasted state (food removed at least 12 h prior to dosing) to groups of 3 per arm.

[17] = tested on: HBV; assay: Extracellular HBV DNA and pgRNA in HepAD38 cells (qPCR, RT-qPCR); assay type: cell-based, Hepatitis B virus
Excerpt: For HBV RNA Northern blot analysis, total cellular RNA or encapsidated pgRNA samples were resolved in a 1.5% agarose gel containing 2.2 M formaldehyde and transferred onto a Hybond-XL membrane (GE Healthcare). For DNA Southern blot analysis, HBV core DNA or cccDNA samples were resolved by electrophoresis in a 1.2% agarose gel and blotted onto a Hybond-XL membrane. Membranes were probed with either an [α-^32P]UTP (3,000 Ci/mmol; PerkinElmer)-labeled plus-strand-specific (for Northern blot hybridization) or minus-strand-specific (for Southern blot hybridization) HBV riboprobe and exposed to a phosphorimager screen. Extracellular HBV DNA and RNA were copurified from the culture medium of induced HepAD38 cells by using a MinElute virus vacuum kit (Qiagen). Viral DNA was quantified using the above-mentioned qPCR method directly, and HBV RNA was detected by RT-qPCR with the same core region primer/probe set after the removal of DNA contamination by DNase I (Thermo Fisher) treatment.

[18] = Hepatitis B virus, Huh-7, read-out: Mean EC50
[19] = Sprague-Dawley, rat, iv, 1 mg/kg
[20] = Sprague-Dawley, rat, po, 2 mg/kg
[21] = cynomolgus monkey, iv, 0.5 mg/kg
[22] = HepAD38, concn ETV 0.01, ABI-H0731 2.0, GLS4 0.5, NVR 3-778 2.5, AT-130 0.8, VRD-32 0.8 μM

CYP3A, sequence (P08684 2-503): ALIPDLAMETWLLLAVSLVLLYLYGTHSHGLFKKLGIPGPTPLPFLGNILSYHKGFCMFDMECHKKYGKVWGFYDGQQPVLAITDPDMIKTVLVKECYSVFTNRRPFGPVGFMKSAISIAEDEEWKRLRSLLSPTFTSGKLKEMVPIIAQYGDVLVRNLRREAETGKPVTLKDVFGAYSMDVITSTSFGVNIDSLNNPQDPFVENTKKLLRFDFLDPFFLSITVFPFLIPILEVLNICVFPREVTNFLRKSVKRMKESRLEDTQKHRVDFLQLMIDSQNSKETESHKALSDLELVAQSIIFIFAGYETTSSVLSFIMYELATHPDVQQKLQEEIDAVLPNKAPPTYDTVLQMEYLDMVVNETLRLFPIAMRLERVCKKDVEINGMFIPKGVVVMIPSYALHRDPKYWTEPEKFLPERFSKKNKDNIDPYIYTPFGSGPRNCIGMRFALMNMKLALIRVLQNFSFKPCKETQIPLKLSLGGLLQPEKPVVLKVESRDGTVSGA
pregnane X receptor (PXR), sequence (O75469 whole entry): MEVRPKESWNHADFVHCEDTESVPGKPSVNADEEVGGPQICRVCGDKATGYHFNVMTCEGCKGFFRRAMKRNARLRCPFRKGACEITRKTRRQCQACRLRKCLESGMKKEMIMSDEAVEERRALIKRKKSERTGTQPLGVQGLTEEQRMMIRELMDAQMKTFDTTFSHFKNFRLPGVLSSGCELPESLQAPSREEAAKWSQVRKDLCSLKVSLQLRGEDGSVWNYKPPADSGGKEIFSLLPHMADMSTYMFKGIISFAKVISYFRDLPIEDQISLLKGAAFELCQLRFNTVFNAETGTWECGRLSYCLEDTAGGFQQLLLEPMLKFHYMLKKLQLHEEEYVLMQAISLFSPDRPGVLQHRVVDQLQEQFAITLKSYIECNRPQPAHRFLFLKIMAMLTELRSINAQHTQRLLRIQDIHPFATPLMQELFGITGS
CYP1A2, sequence (P05177 whole entry): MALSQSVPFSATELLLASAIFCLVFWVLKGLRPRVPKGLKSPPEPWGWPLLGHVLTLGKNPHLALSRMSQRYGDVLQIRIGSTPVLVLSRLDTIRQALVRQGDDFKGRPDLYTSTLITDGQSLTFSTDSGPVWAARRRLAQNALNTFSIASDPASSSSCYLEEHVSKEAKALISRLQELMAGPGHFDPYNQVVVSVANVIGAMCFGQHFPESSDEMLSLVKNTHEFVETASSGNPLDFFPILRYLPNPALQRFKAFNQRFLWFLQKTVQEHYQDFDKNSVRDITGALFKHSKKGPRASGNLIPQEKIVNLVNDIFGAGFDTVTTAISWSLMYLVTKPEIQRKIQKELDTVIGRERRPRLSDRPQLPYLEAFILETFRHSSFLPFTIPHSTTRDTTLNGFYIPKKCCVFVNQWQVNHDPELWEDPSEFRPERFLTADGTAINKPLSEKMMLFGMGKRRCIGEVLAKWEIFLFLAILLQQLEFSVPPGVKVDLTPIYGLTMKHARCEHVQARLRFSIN
T1 sequence (P11712 whole entry): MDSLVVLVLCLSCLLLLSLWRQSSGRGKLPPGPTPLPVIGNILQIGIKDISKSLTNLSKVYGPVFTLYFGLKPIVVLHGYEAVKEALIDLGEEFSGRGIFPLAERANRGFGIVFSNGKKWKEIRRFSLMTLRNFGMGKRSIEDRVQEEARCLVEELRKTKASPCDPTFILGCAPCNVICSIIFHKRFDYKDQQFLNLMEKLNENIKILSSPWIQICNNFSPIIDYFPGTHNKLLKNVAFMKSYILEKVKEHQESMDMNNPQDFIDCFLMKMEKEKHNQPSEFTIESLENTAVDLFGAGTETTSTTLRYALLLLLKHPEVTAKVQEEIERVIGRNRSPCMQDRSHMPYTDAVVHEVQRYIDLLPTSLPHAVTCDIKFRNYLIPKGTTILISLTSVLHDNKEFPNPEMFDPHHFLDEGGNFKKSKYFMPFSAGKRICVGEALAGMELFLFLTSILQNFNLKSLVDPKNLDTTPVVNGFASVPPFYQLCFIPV
HBV Cp (3CA Cp150-BODIPY), sequence (P03147 1-150 C48A/C61A/C107A/R150C): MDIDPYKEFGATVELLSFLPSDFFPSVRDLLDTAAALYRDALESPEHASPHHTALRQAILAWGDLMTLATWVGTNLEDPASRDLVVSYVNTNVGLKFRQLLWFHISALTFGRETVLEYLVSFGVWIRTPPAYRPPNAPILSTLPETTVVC

For O=C(NCc1cnc(C(F)(F)F)s1)c1ccc2c(c1)NC(=O)c1ccccc1S2(=O)=O [ABI-H0731], the IC50 [1] was 30700 nM, the “CLpred as % of liver blood flow” value ([2]; mouse, 0.5 μM) was 12-21% and the CLpred ([2]; 1 μM) was 2.3 to 21 mL/min/kg. For the same compound, the “CLpred as % of liver blood flow” value ([2]; 1 μM) was 11-32%, the “PXR activation activity, % of the control activity” value ([3]; 10 μM) was 29% and the “PXR activation activity, % of the control activity” value ([3]; 40 μM) was 68%. The IC50 [4] was > 100000 nM, the EC50 ([5]; read-out: Mean EC50, HBeAg) was 2210 nM and the EC50 ([5]; read-out: Mean EC50, HBsAg) was 3000 nM. It also gave an EC50 ([5]; read-out: Mean EC50, pgRNA) of 1840 nM, an EC50 ([5]; total intracellular viral DNA, read-out: Mean EC50, viral DNA) of 154 ± 18 nM and an EC50 [6] of 142 ± 48 nM. For the same compound, the IC50 [7] was 267 nM, the EC50 [8, 18] was > 10000 nM and the Fold shift ([8]; T109M vs wild type) was >68 fold. The “target organ or dose-limiting toxicities” value [9] was “no specific target organ or dose-limiting toxicities”, the IC50 ([10]; probe midazolam) was 82300 nM and the IC50 ([10]; probe test (so in the source)) was 46200 nM. For the same compound, the CC50 at 4 days [11] was > 10000 nM, the EC50 [12, 18] was 481 ± 34 nM and the Fold shift ([12]; Y38F vs wild type) was 3.3 fold. For the same compound, the EC50 ([13]; HePAD38, HepAD38, 2% HPL) was 200 ± 5 nM, the EC50 ([13]; HePAD38, HepAD38, 20% HPL) was 522 ± 40 nM and the half-life at 1 μM [14] was 1.75 h. It also gave an EC50 [15, 18] of 224 ± 50 nM, a Fold shift ([15]; Y38C vs wild type) of 1.5 fold and a Vd ([16]; CD-1 (mouse), Sprague-Dawley (rat), beagle (dog), cynomolgus monkey, iv) of 1.56 to 4.06 L/kg. The Tmax ([16]; CD-1 (mouse), Sprague-Dawley (rat), beagle (dog), cynomolgus monkey, po) was 0.7 to 3.3 h, the “plasma clearance as % of liver blood flow” value (“plasma clearance as %” for short) ([16]; CD-1, mouse, iv) was 9% and the AUC(0-inf) ([16]; CD-1, mouse, iv, 1 mg/kg) was 2070 ng·h/mL. For the same compound, the T1/2 ([16]; CD-1, mouse, iv, 1 mg/kg) was 3.55 h, the Vd ([16]; CD-1, mouse, iv, 1 mg/kg) was 2.16 L/kg and the clearance ([16]; CD-1, mouse, iv, 1 mg/kg) was 8.05 mL/min/kg. For the same compound, the half-life ([16]; CD-1, mouse, iv, 1 mg/kg, T1/2) was 3.6 h, the AUC(0-inf) ([16]; CD-1, mouse, po, 5 mg/kg) was 8690 ng·h/mL and the Cmax ([16]; CD-1, mouse, po, 5 mg/kg) was 1420 ng/mL. It also gave a Tmax ([16]; CD-1, mouse, po, 5 mg/kg) of 1 h, a bioavailability ([16]; CD-1, mouse, po, 5 mg/kg) of 84% and a half-life ([16]; CD-1, mouse, po, 5 mg/kg, T1/2) of 3.03 h. For the same compound, the “plasma clearance as %” value ([16]; Sprague-Dawley, rat, iv) was 16%, the AUC(0-inf) [16, 19] was 1670 ng·h/mL and the T1/2 [16, 19] was 4.92 h. It also gave a Vd [16, 19] of 3.47 L/kg, a clearance [16, 19] of 10.1 mL/min/kg and a half-life ([16]; Sprague-Dawley, rat, iv, 1 mg/kg, T1/2) of 4.9 h. It also gave an AUC(0-inf) [16, 20] of 3160 ng·h/mL, a Cmax [16, 20] of 324 ng/mL and a Tmax [16, 20] of 1 h. The bioavailability [16, 20] was 95%, the half-life ([16]; Sprague-Dawley, rat, po, 2 mg/kg, T1/2) was 6.13 h and the “plasma clearance as %” value ([16]; beagle, dog, iv) was 47%. For the same compound, the AUC(0-inf) ([16]; beagle, dog, iv, 2 mg/kg) was 2890 ng·h/mL, the T1/2 ([16]; beagle, dog, iv, 2 mg/kg) was 2.46 h and the Vd ([16]; beagle, dog, iv, 2 mg/kg) was 1.56 L/kg. It also gave a clearance ([16]; beagle, dog, iv, 2 mg/kg) of 14.7 mL/min/kg, a half-life ([16]; beagle, dog, iv, 2 mg/kg, T1/2) of 2.5 h and a bioavailability ([16]; beagle, dog, po) of 49%. The AUC(0-inf) ([16]; beagle, dog, po, 3 mg/kg) was 2150 ng·h/mL, the Cmax ([16]; beagle, dog, po, 3 mg/kg) was 861 ng/mL and the Tmax ([16]; beagle, dog, po, 3 mg/kg) was 0.667 h. For the same compound, the half-life ([16]; beagle, dog, po, 3 mg/kg, T1/2) was 3.34 h, the “plasma clearance as %” value ([16]; cynomolgus monkey, iv) was 11% and the AUC(0-inf) [16, 21] was 1750 ng·h/mL. It also gave a Vd [16, 21] of 4.06 L/kg, a clearance [16, 21] of 4.86 mL/min/kg and a half-life [16, 21] of 12.6 h. For the same compound, the AUC(0-inf) ([16]; cynomolgus monkey, po, 2 mg/kg) was 4340 ng·h/mL, the Cmax ([16]; cynomolgus monkey, po, 2 mg/kg) was 353 ng/mL and the Tmax ([16]; cynomolgus monkey, po, 2 mg/kg) was 3.33 h. The bioavailability ([16]; cynomolgus monkey, po, 2 mg/kg) was 55%, the half-life ([16]; cynomolgus monkey, po, 2 mg/kg) was 11.6 h and the “secretion of HBV RNA and DNA in the culture medium” value ([17]; HepAD38, 10-fold over VR EC50) was ≤ 3 % of the DMSO control. For the same compound, the “Extracellular DNA content (% of DMSO control)” value [17, 22] was 1.4 % of DMSO control and the “Extracellular pgRNA content (% of DMSO control)” value [17, 22] was 3.1 % of DMSO control.
